# T1: purified recombinant Lactobacillus plantarum BSH (Lactiplantibacillus plantarum, UniProt Q06115)
# T1 sequence (Q06115 1-324): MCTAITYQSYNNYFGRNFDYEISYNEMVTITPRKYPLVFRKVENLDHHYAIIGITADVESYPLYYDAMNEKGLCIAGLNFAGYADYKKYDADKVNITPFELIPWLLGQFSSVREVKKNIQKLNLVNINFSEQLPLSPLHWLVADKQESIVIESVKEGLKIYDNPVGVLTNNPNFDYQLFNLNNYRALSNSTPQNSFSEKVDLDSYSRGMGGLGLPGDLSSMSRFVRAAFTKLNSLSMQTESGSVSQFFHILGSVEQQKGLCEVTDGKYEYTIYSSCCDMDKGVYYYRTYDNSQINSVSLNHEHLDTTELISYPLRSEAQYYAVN
# T2: BSH (Lactiplantibacillus plantarum, UniProt Q06115)
# T2 sequence (Q06115 1-324): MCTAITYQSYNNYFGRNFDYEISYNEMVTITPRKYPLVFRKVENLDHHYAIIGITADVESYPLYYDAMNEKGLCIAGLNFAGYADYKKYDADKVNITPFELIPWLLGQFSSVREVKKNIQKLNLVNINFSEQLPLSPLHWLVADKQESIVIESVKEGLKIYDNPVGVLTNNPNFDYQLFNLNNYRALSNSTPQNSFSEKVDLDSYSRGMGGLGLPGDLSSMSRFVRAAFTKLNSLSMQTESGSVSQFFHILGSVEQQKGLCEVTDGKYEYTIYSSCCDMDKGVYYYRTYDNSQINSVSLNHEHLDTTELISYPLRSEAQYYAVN
# Key:
# [1] = target: T1, purified recombinant Lactobacillus plantarum BSH; experiment: BA-ABP labeling of purified BSH; assay type: binding
# Description: Binding of BA-ABP to purified recombinant Lactobacillus plantarum BSH was assessed through incubation with probe in buffer (FIG. 18A). […] Additionally, labeling was time-dependent.
# [2] = target: T2, BSH; experiment: BA-ABP labeling of purified BSH added to Escherichia coli bacterial lysate; assay type: binding
# Description: (§1) The BSH probes were then assayed for retention of function in the presence of a complex cell lysate. Purified BSH was added to an organism that is not known to endogenously express BSH to precisely control this variable. […] After confirming that the BSH-ABP is capable of labeling BSH in complex biological mixtures, application of the probe was assayed for detection of endogenous BSH. L. plantarum was used because its expression of BSH is well-documented, and this organism is found in many popular over-the-counter probiotic formulations for support of healthy cholesterol levels.
# [3] = tested on: BSH; experiment: Probe labeling of endogenous BSH in L. plantarum lysate; assay type: binding, Lactobacillus plantarum
# Description: as §1
# [4] = tested on: BSH; experiment: In vivo probe labeling in L. plantarum; assay type: cell-based, Lactobacillus plantarum
# Description: as §1
# [5] = tested on: human gut microbiome lysate; experiment: BSH ABP labeling in human gut microbiome lysate; assay type: binding
# Description: The probes were assayed for activity in human gut microbiome extracts.
# [6] = tested on: purified BSH; details: read-out: Michaelis-Menten constant (Km); turnover by purified BSH, 0.1 M sodium phosphate pH 6, 37° C.
# Description: Reaction volumes of 100 μL were used in Microfluor1 black flat bottom microtiter 96 well plates (Thermo Scientific). 50 μL of enzyme (40 μg/ml) in buffer (0.1 M sodium phosphate, pH=6) was added to each well. […] Reactions were immediately placed in a plate reader (SPECTRAmax Gemini XS) pre-warmed to 37° C., and reaction progress was monitored at 450 nm (excitation 350 nm) for 20 minutes. Reactions had final concentrations of 20 μg/ml enzyme, 0.1 M sodium phosphate (pH 6), and 2.5% DMSO.
# The initial rate data was used for determination of Km values. For Km determination, the kinetic values were obtained directly from nonlinear regression of substrate-velocity curves in the presence of varying concentrations of BA-AMCA. The equation Y=(Vmax*X)/(Km+X*(1+X/Ki)), X=substrate concentration (μM) and Y=enzyme velocity (RFU/s); was used in the nonlinear regression. Each BA-AMCA Km value was determined using at least three independent experiments.
# [7] = tested on: endogenously expressed BSH in L. plantarum lysate; experiment: Lactobacillus plantarum lysate assay; assay type: biochemical; details: CAPE 2 mM
# Description: Reaction volumes of 100 μL were used in Microfluor1 black flat bottom microtiter 96 well plates (Thermo Scientific). […] A 50 μL solution of probe (300 μM) in buffer with 5% DMSO was then added to initiate the reaction. Reactions were immediately placed in a plate reader (SPECTRAmax Gemini XS) pre-warmed to 37° C., and reaction progress was monitored at 450 nm (excitation 350 nm) for 20 minutes.
# [8] = tested on: L. plantarum cells; experiment: Whole-cell Lactobacillus plantarum assay; assay type: cell-based; details: varying amount of CAPE
# Description: A starter culture was created by inoculation of 5 ml MRS broth from a L. plantarum colony grown on MRS agar. The starter culture was incubated overnight at 37° C. overnight. The 5 ml starter culture was then added to 95 ml fresh MRS broth and grown until the optical density at 600 nm reached 0.7. At that point, the cells were pelleted via centrifugation. The cell pellet was resuspended in 15 ml PBS, and centrifuged. The cells were additionally washed with PBS and pelleted once more. The resulting pellet was suspended in 380 μl PBS. The cell suspension was then serially diluted two-fold. […]
# [9] = tested on: purified BSH; experiment: GCA and iodoacetamide competition assay; assay type: biochemical; details: CA-AMCA 150 μM, BSH 10 μg/ml
# [10] = substrate: Cc1c(CC(=O)O)c(=O)oc2cc(NC(=O)CC[C@@H](C)[C@H]3CC[C@H]4C5[C@H](O)C[C@@H]6C[C@H](O)CC[C@]6(C)[C@H]5C[C@H](O)[C@]34C)ccc12; experiment: purified protein, by the assay type; assay type: biochemical; details: other: individual replicate, purified BSH 20 μg/ml, 0.1 M sodium phosphate pH 6, 2.5% DMSO, 37° C., 20 min, Ex 350/Em 450 nm
# Source text: Fluorescent signals for substrate turnover could be detected with as low as mid-nanomolar enzyme concentrations, which is considerably less enzyme when compared to micromolar concentrations required for conventional ninhydrin assays with purified BSH. […] Furthermore, robust signals could be reliably observed in the low micromolar substrate concentration range before any indication of substrate inhibition. Product formation was additionally confirmed through coupling of the BSH reaction to a secondary HPLC-based assay.
molecule,measurement,setting,value
C#CCNC(=O)C=CCC[C@@H](C)[C@H]1CC[C@H]2C3[C@H](O)C[C@@H]4C[C@H](O)CC[C@]4(C)[C@H]3C[C@H](O)[C@]12C (stereo partly drawn) [BA-ABP],"labeling of purified BSH, time dependence",[1],time-dependent
same,labeling of purified BSH upon addition of free bile salts,[1]; competition with native substrate,could be attenuated
same,"labeling of purified BSH, dose dependence",[1]; incubation with probe in buffer,dose-dependent
same,"fluorescent gel labeling, BSH added to lysate of organism not expressing BSH",[2],"a fluorescent band that is consistent with BSH labeling, along with several other unknown targets"
same,fluorescence imaging of labeling in L. plantarum lysate,[3],"a band consistent with BSH, along with several others"
same,labeling in vivo in L. plantarum,[4],Labeling in vivo was also confirmed
same,labeling in gut microbiome lysate,[5],labeling was observed
Cc1c(CC(=O)O)c(=O)oc2cc(NC(=O)CC[C@@H](C)[C@H]3CC[C@H]4C5[C@H](O)C[C@@H]6C[C@H](O)CC[C@]6(C)[C@H]5C[C@H](O)[C@]34C)ccc12 (stereo partly drawn) [CA-AMCA],Km,[6],26 µM
"O=C(/C=C/c1ccc(O)c(O)c1)OCCc1ccccc1 [CAPE, caffeic acid phenethyl ester]",effect on CA-AMCA turnover in L. plantarum lysate,[7],Activity was not observed
same,effect on probe velocities in whole-cell suspension,[8],probe velocities were consistent with the amount of CAPE added
C[C@H](CCC(=O)NCC(=O)O)[C@H]1CC[C@H]2[C@@H]3[C@H](O)C[C@@H]4C[C@H](O)CC[C@]4(C)[C@H]3C[C@H](O)[C@]12C [glycocholic acid],effect on CA-AMCA turnover by BSH,[9]; GCA 10 mM,Attenuated activity
"NC(=O)CI [iodoacetamide, reference compound]",effect on CA-AMCA turnover by BSH,[9]; IAA 12 mM,completely ablated substrate turnover
same,effect of pre-treatment on BA-ABP binding to BSH,[1]; pre-treatment before probe,Binding was ablated
"bile salt hydrolase (BSH), purified (Lactiplantibacillus plantarum WCFS1) (protein) MCTAITYQSYNNYFGRNFDYEISYNEMVTITPRKYPLVFRKVENLDHHYAIIGITADVESYPLYYDAMNEKGLCIAGLNFAGYADYKKYDADKVNITPFELIPWLLGQFSSVREVKKNIQKLNLVNINFSEQLPLSPLHWLVADKQESIVIESVKEGLKIYDNPVGVLTNNPNFDYQLFNLNNYRALSNSTPQNSFSEKVDLDSYSRGMGGLGLPGDLSSMSRFVRAAFTKLNSLSMQTESGSVSQFFHILGSVEQQKGLCEVTDGKYEYTIYSSCCDMDKGVYYYRTYDNSQINSVSLNHEHLDTTELISYPLRSEAQYYAVN",Km,[10]; FIG. 8B,31.48 µM
same,Km,[10]; FIG. 8C,22.57 µM
